From patent US9078440B2, “6-(2-aminophenyl)picolinates and their use as herbicides” (BAYER INTELLECTUAL PROPERTY GMBH, priority 2010, dated 2015)

Tests used:
Type in all cases: in vivo
Amaranthus retroflexus [1] = assay: Post-emergence herbicidal effect, greenhouse pot test; details: 1.28 kg or less active substance per hectare, scored visually after about 3 weeks
Method: (§1) Post-emergence herbicidal effect and crop plant compatibility
(§2) Seeds of monocotyledonous and dicotyledonous weed and crop plants are placed in sandy loam in wood-fibre pots, covered with soil and cultivated in a greenhouse under good growth conditions. 2 to 3 weeks after sowing, the test plants are treated at the one-leaf stage. The inventive compounds, formulated in the form of wettable powders (WP) or as emulsion concentrates (EC), are then sprayed onto the green parts of the plants as an aqueous suspension or emulsion at a water application rate of 600 to 800 I/ha (converted) with addition of 0.2% by weight of wetting agent. After the test plants have been left to stand in the greenhouse under optimal growth conditions for about 3 weeks, the action of the formulations is scored visually in comparison to untreated controls (herbicidal action in percent (%): 100% action=the plants have died, 0% action=like control plants).

Matricaria inodora = assay: as above; details: 1.28 kg or less active substance per hectare, scored visually after about 3 weeks
Method: as §1, §2

[2] = system: Pharbitis (Ipomoea) purpurea; assay: as above; details: 1.28 kg or less active substance per hectare, scored visually after about 3 weeks
Method: as §1, §2

[3] = system: Polygonum (Fallopia) convolvulus; assay: as above; details: 1.28 kg or less active substance per hectare, scored visually after about 3 weeks
Method: as §1, §2

Stellaria media = assay: as above; details: 1.28 kg or less active substance per hectare, scored visually after about 3 weeks
Method: as §1, §2

Veronica persica = assay: as above; details: 1.28 kg or less active substance per hectare, scored visually after about 3 weeks
Method: as §1, §2

Viola tricolor [4] = assay: as above; details: 1.28 kg or less active substance per hectare, scored visually after about 3 weeks
Method: as §1, §2

Amaranthus retroflexus [5] = assay: Pre-emergence herbicidal effect, greenhouse pot test; details: 1.28 kg of active substance per hectare, assessed visually after 3 weeks
Excerpt: (§3) Pre-emergence Herbicidal Effect and Crop Plant Compatibility
(§4) Seeds of monocotyledonous and dicotyledonous weed plants and crop plants are placed in wood-fibre pots in sandy loam and covered with soil. The inventive compounds, formulated in the form of wettable powders (WP) or as emulsion concentrates (EC), are then applied to the surface of the covering soil as an aqueous suspension or emulsion at a water application rate of 600 to 800 I/ha (converted) with addition of 0.2% wetting agent. After the treatment, the pots are placed in a greenhouse and kept under good growth conditions for the test plants. The damage to the test plants is assessed visually after a test period of 3 weeks by comparison with untreated controls (herbicidal activity in percent (%): 100% action=the plants have died, 0% action=like control plants).

[6] = system: Polygonum (Fallopia) convolvulus; assay: as above; details: 1.28 kg of active substance per hectare, assessed visually after 3 weeks
Excerpt: as §3, §4

Viola tricolor [7] = assay: as above; details: 1.28 kg of active substance per hectare, assessed visually after 3 weeks
Excerpt: as §3, §4

Measured: herbicidal action

COC(=O)c1nc(-c2ccc(Cl)cc2N)cc(N)c1Cl [compound 58, methyl 4-amino-6-(2-amino-4-chlorophenyl)-3-chloropyridine-2-carboxylate]
at least 90%: all assays above
